From ChEMBL document CHEMBL5385901, “Drug repurposing of propafenone to discover novel anti-tumor agents by impairing homologous recombination to delay DNA damage recovery of rare disease conjunctival melanoma” (Eur J Med Chem, 2023) come the findings set out here.

The nature of data set [1]: Antiproliferative activity against human CM-AS16 cells assessed as cell growth inhibition incubated for 72 hrs by CCK8 assay. In kind it is functional, cell-based. Particulars: CM-AS16, 72 h. (In general: Tetrazolium dyes change colour on reduction, which living cells bring about.)
Data set [2] has as its system CRMM-2. The data set can be described thus: Antiproliferative activity against human CRMM-2 cells assessed as cell growth inhibition incubated for 72 hrs by CCK8 assay. In kind it is functional, cell-based. Particulars: CRMM-2, 72 h.
Data set [3] is described as follows: Antiproliferative activity against human CM2005.1 cells assessed as cell growth inhibition incubated for 72 hrs by CCK8 assay. In kind it is functional, cell-based. Particulars: CM2005.1, 72 h.
A short description of data set [4]: Antiproliferative activity against human HL7702 cells assessed as cell growth inhibition incubated for 72 hrs by CCK8 assay. In kind it is toxicity, cell-based. Particulars: HL7702 (L02) cells.
Data set [5] is described as follows: Inhibition of homologous recombination in human CRMM-1 cells at 10 uM incubated for 12 hrs by real-time PCR analysis relative to control. Format: functional. (In general: Real-time PCR tracks product formation cycle by cycle.)
For data set [6], the system named is CRMM-1. The experiment in a line: Antiproliferative activity against human CRMM-1 cells assessed as cell growth inhibition incubated for 72 hrs by CCK8 assay. Format: functional, cell-based. Particulars: CRMM-1, 72 h.
A short description of data set [7]: Antiproliferative activity against human PIG1 cells assessed as cell growth inhibition incubated for 72 hrs by CCK8 assay. In kind it is toxicity, cell-based.

Each structure is given as a SMILES string.

As to `CCCNCC(O)COc1ccccc1` (centres undefined), the IC50 in data set [1] and in data set [2] was over 100 µM in each case.
In the case of `CCCNCCCOc1ccccc1C(=O)CCc1ccccc1`, the IC50 (commonly the midpoint of a concentration-inhibition curve) in data set [3] stood at 68.5 µM; in data set [1], 10 µM; in data set [6], 54.5 µM; in data set [2], 35.9 µM. Further, the figures for the IC50 at 72 h in data set [4] and in data set [7] were 64.8 µM and 66.4 µM, respectively. Further, the inhibition (commonly how much of the control response was suppressed) at 10 µM in data set [5] was found to be 65%.
On to `O=C(CCCc1ccccc1)c1c(OCCCn2cccc2)ccc2ccccc12`, for which the figures for the half-maximal inhibitory concentration (IC50) in data set [3], in data set [6] and in data set [2] were 99.2 µM, 75.9 µM and 50.6 µM, respectively. Moreover, the values for the 50% inhibitory concentration (IC50) at 72 h in data set [4] and in data set [7] were 95.5 µM and 75.2 µM, respectively.
Regarding `O=C(CCCc1ccccc1)c1c(OCCCN2CCOCC2)ccc2ccccc12`, the IC50 in data set [3] stood at 1 µM; in data set [1] it was 4.2 µM; in data set [6], 2.3 µM; in data set [2], 4.2 µM. For the same molecule, the IC50 at 72 h worked out at 31.8 µM in data set [4] and 18.3 µM in data set [7]. In addition, in data set [5], the inhibition at 10 µM turned out to be 83.2%.
Turning to `C#CCNCCCOc1ccc2ccccc2c1C(=O)CCCc1ccccc1`, the IC50 in data set [3] stood at 11.7 µM; in data set [1] it was 4.6 µM; in data set [6], 6.4 µM; in data set [2] it was 4 µM. The IC50 at 72 h in data set [4] is 30.7 µM; in data set [7], 16 µM. Also, the inhibition at 10 µM in data set [5] worked out at 53.2%.
Regarding `CCCNCC(O)COc1cccc(C(=O)CCc2ccccc2)c1` (centres undefined), the IC50 in data set [3] turned out to be 38 µM; in data set [1] it was 16.5 µM; in data set [6], 28.3 µM; in data set [2], 22.3 µM. Moreover, the IC50 at 72 h in data set [4] was 69.1 µM; in data set [7], 62.4 µM. The inhibition at 10 µM in data set [5] came to 52.5%.
`CC(C)(C)CNCCCOc1ccc2ccccc2c1C(=O)CCCc1ccccc1`: the IC50 was 5.1 µM in data set [3], 5 µM in data set [1], 8.7 µM in data set [6] and 5.1 µM in data set [2]. In addition, the IC50 at 72 h in data set [4] stood at 11.1 µM; in data set [7], 4 µM. Moreover, the inhibition at 10 µM in data set [5] was 52.4%.
On to `CCCNCC(O)COc1ccccc1C(=O)CCCc1ccccc1` (centres undefined), for which the IC50 in data set [3] came to 25.2 µM; in data set [1], 4.9 µM; in data set [6], 25.3 µM; in data set [2] it was 28.7 µM. For the same molecule, the figures for the half-inhibitory concentration (IC50) at 72 h in data set [4] and in data set [7] were 46 µM and 33.2 µM, respectively. For the same molecule, in data set [5], the inhibition at 10 µM amounted to 62.2%.
`CCCCCCCNCCCOc1ccccc1C(=O)CCCc1ccccc1`: the IC50 in data set [3] is 1.3 µM; in data set [1] it was 6.3 µM; in data set [6], 1.1 µM; in data set [2], 0.6 µM. In addition, the figures for the IC50 at 72 h in data set [4] and in data set [7] were 0.7 µM and 0.5 µM, respectively. In addition, the inhibition at 10 µM in data set [5] worked out at 64.8%.
On to `O=C(CCc1ccccc1)c1ccccc1`, for which the IC50 in data set [1], in data set [6] and in data set [2] was over 100 µM in each case.
Take `CC(C)(C)C(=O)NCCCOc1ccc2ccccc2c1C(=O)CCCc1ccccc1`: the results for the IC50 in data set [3], in data set [6] and in data set [2] were 35.9 µM, 13.1 µM and 29.6 µM, respectively. For the same molecule, the IC50 at 72 h in data set [4] is 39.9 µM; in data set [7], 14.2 µM. Moreover, the inhibition at 10 µM in data set [5] was 55%.
On to `CCC(C)(C)NCCCOc1ccc2ccccc2c1C(=O)CCCc1ccccc1`, for which the 50% inhibitory concentration (IC50) in data set [3] turned out to be 4.1 µM; in data set [1], 3.1 µM; in data set [6], 4.8 µM; in data set [2], 3.7 µM. Also, the values for the IC50 at 72 h in data set [4] and in data set [7] were 10.4 µM and 5.7 µM, respectively. The inhibition at 10 µM in data set [5] is 44.6%.
As to `CCCNCCCOc1cccc2cccc(C(=O)CCCc3ccccc3)c12`, the half-maximal inhibitory concentration (IC50) in data set [3] turned out to be 8.4 µM; in data set [1], 8.8 µM; in data set [6], 9.8 µM; in data set [2], 5.9 µM. In addition, the results for the IC50 at 72 h in data set [4] and in data set [7] were 10.2 µM and 6.8 µM, respectively. For the same molecule, the inhibition at 10 µM in data set [5] came out at 59%.
For `CCCNCC(O)COc1ccccc1C(O)CCc1ccccc1` (centres undefined), the IC50 was found to be 73.3 µM in data set [3], 18.7 µM in data set [1], 55.4 µM in data set [6] and 14.9 µM in data set [2]. Also, the half-inhibitory concentration (IC50) at 72 h was 71.5 µM in data set [4] and 89.6 µM in data set [7]. Moreover, the inhibition at 10 µM in data set [5] is 15.7%.
On to `CCCNCC(O)COc1ccccc1C(=O)NCc1ccccc1` (centres undefined), for which the IC50 in data set [1] was over 100 µM.
On to `C=CC(=O)NCCCOc1ccc2ccccc2c1C(=O)CCCc1ccccc1`, for which the half-maximal inhibitory concentration (IC50) was 36.9 µM in data set [3], 18.2 µM in data set [1], 17.3 µM in data set [6] and 17.2 µM in data set [2]. Besides, the half-inhibitory concentration (IC50) at 72 h in data set [4] is 70.2 µM; in data set [7], 25.7 µM. In data set [5], the inhibition at 10 µM came to 66.9%.
On to `Cc1cncc(COc2ccc3ccccc3c2C(=O)CCCc2ccccc2)c1`, for which the IC50 in data set [3] came out at 33 µM; in data set [6], 21.5 µM; in data set [2], 38.3 µM. The results for the half-maximal inhibitory concentration (IC50) at 72 h in data set [4] and in data set [7] were 95.4 µM and 29.1 µM, respectively. In addition, the inhibition at 10 µM in data set [5] worked out at 47.1%.
In the case of `O=C(CCCc1ccccc1)c1c(OCCCNC2CC2)ccc2ccccc12`, the IC50 in data set [3] is 10.4 µM; in data set [1], 14.2 µM; in data set [6] it was 10.3 µM; in data set [2] it was 16.4 µM. In addition, the IC50 at 72 h came to 32.4 µM in data set [4] and 8 µM in data set [7]. The inhibition at 10 µM in data set [5] amounted to 29.3%.
With `CCCOCC(=O)COc1ccccc1C(=O)CCc1ccccc1`, the IC50 in data set [3] is 40.9 µM; in data set [1], 36.8 µM; in data set [6] it was 41.8 µM; in data set [2], 28.7 µM. The half-inhibitory concentration (IC50) at 72 h in data set [4] amounted to 73.1 µM; in data set [7], 56.7 µM. For the same molecule, the inhibition at 10 µM in data set [5] was 20.6%.
Regarding `CCCCCC(O)COc1ccccc1C(=O)CCc1ccccc1` (centres undefined), the 50% inhibitory concentration (IC50) in data set [3] is 46.3 µM; in data set [1], 13.9 µM; in data set [6], 16.6 µM; in data set [2] it was 54.5 µM. The IC50 at 72 h in data set [4] is 22.3 µM; in data set [7], over 100 µM. Moreover, the inhibition at 10 µM in data set [5] is 51.2%.
As to `CCCCNCCCOc1ccccc1C(=O)CCCc1ccccc1`, the concentration for half-maximal inhibition (IC50) in data set [3] stood at 5.4 µM; in data set [1] it was 4.9 µM; in data set [6] it was 1.8 µM; in data set [2] it was 1.1 µM. Further, the results for the IC50 at 72 h in data set [4] and in data set [7] were 3.7 µM and 9.1 µM, respectively. For the same molecule, the inhibition at 10 µM in data set [5] was found to be 38.3%.
Turning to `CCCNCCCOc1ccccc1C(=O)CCCc1ccccc1`, the IC50 in data set [3] stood at 2.6 µM; in data set [1], 2.1 µM; in data set [6], 2 µM; in data set [2], 3.2 µM. In addition, the IC50 at 72 h in data set [4] amounted to 32.9 µM; in data set [7] it was 1.7 µM. Besides, the inhibition at 10 µM in data set [5] came out at 71.6%.
As to `CCCN(C)CC(O)COc1ccccc1C(=O)CCc1ccccc1` (centres undefined), the IC50 amounted to 61.2 µM in data set [3], 22.6 µM in data set [1], 48.7 µM in data set [6] and 14.6 µM in data set [2]. For the same molecule, the IC50 at 72 h in data set [4] was 97.2 µM; in data set [7], 71.9 µM. Further, in data set [5], the inhibition at 10 µM is 30.3%.
For `CCCNCC(O)COc1ccccc1CCCc1ccccc1` (centres undefined), the IC50 in data set [3] turned out to be 9.6 µM; in data set [1], 6 µM; in data set [6], 9.2 µM; in data set [2], 20.9 µM. Also, the IC50 at 72 h was 19.3 µM in data set [4] and 15.7 µM in data set [7]. Also, in data set [5], the inhibition at 10 µM came out at 57%.
